Consider five compounds from patent US4730042A, “Compounds 1 or 3-hydroxy-4-benzyl-6-methyl-7-(4-isopropylamino-butoxy)-1,3-dihydro[3,4- C]pyridine and 2-methyl-3-(4-isopropyl-aminobutoxy)-4-(1'-morphilinomethyl)-5-hydroxyme thyl-6-benzyl pyridine, useful for treating cardiac arrhythmias” (priority 1985, dated 1988).

Molecules are shown by their SMILES. Bounds are passed on as bounds.

Data set [1] concerns ECG (ST depression, disappearance of P, extrasystoles). The experiment in a line: Toxic changes in the ECG and therapeutic index in the rat. It is filed as in vivo. The note with it: i.v., toxic effect in the ECG (occurrence of extrasystoles). The protocol:
(§1) The test animals used were male Sprague-Dawley rats weighing 180-300 g. Anesthesia was effected with 100 mg/kg of thiobutabarbital, administered intraperitoneally. To induce arrhythmias, aconitine was infused at a dosage rate of 5 μg per kg per min. The test substances were administered intravenously, directly before the beginning of the aconitine infusion. The parameter measured is the amount of aconitine which leads to the first signs of arrhythmias (disappearance of P, ventricular extrasystoles and tachycardia) in the ECG of the animals. In the case of untreated animals, the arrhythmogenic aconitine dose was 16.5±0.34 μg/kg (n=120). The dose which causes a 50% increase was determined from the linear relationship between log dose (mg/kg) of the test substances and the relative increase in the arrhythmogenic aconitine dose (Δ%).
(§2) The dose of test substance which causes toxic changes in the ECG (ST depression, disappearance of P, extrasystoles) was also determined. The quotient of the ECG-toxic dose and the antiarrhythmic ED 50 was evaluated as a measure of the therapeutic index of the novel compounds.

Experiment in data set [2]: as above
It counts as in vivo. The settings on record: in vivo, iv, quotient of ECG-toxic dose and antiarrhythmic ED 50. Here is the method: as §1, §2

The subject of data set [3] is aconitine-induced arrhythmia. As to the kind of experiment: Antiarrhythmic effect on the aconitine-induced arrhythmia in anesthetized rats. It is filed as in vivo, male Sprague-Dawley rats. The settings on record: for ED50: Rattus norvegicus, iv, read-out: Antiarrhythmic effect ED 50; for Antiarrhythmic effect, maximum effect / maximum effect compared with barucainid, in words: rat; for Antiarrhythmic effect, maximum effect: i.v., maximum relative increase in the arrhythmogenic aconitine dose; for maximum effect compared with barucainid, in words: versus barucainid. The protocol: The novel compounds have a powerful antiarrhythmic action and are useful for the therapy of cardiac arrhythmias. The pharmacological investigations to determine the antiarryhythmic action were carried out using the antiarrhythmic barucainid as a comparison.
as §1
The maximum effect achieved (Δ%) is evaluated as a further criterion of the antiarrhythmic efficacy.

`Cc1nc(Cc2ccc(O)cc2)c2c(c1OCCCCNC(C)C)COC2` [Example 4, 4-(p-hydroxybenzyl)-6-methyl-7-(4-isopropylaminobutoxy)-1,3-dihydrofuro[3,4-C]pyridine]: the ECG-toxic dose in data set [1] turned out to be 46.4 mg/kg. For the same compound, the selectivity ratio in data set [2] was 17.3. In data set [3], the ED50 was 2.69 mg/kg; the “Antiarrhythmic effect, maximum effect” value is 263 Δ %; the “maximum effect compared with barucainid, in words” value is “superior to barucainid”.
With `Cc1nc(Cc2ccccc2)c2c(c1OCCCCNC(C)C)COC2` [Barucainid, reference compound], the ECG-toxic dose in data set [1] is listed as 10.0 mg/kg. In addition, in data set [2], the selectivity ratio was 5.13. Also, in data set [3], the ED50 worked out at 1.95 mg/kg and the “Antiarrhythmic effect, maximum effect” value was 105 Δ %.
On the same counts, the results for `Cc1nc(Cc2ccccc2)c(CO)c(CN2CCOCC2)c1OCCCCNC(C)C.Cl.Cl.Cl` [Example 1, 2-methyl-3-(4-isopropylaminobutoxy)-4-(1'-morpholinomethyl)-5-hydroxymethyl-6-benzylpyridine trihydrochloride] are 2.15 mg/kg, 11.3, 0.19 mg/kg and 111 Δ %.
In data set [1], `Cc1nc(Cc2ccccc2)c2c(c1OCCCCNC(C)C)COC2O.Cl.Cl` (centres unmarked) [Example 3, 3-hydroxy-4-benzyl-6-methyl-7-(4-isopropylaminobutoxy)-1,3-dihydrofuro[3,4-C]pyridine dihydrochloride] came in with an ECG-toxic dose of 10 mg/kg. The selectivity ratio in data set [2] was 14.4. In addition, in data set [3], the ED50 turned out to be 0.695 mg/kg; the “Antiarrhythmic effect, maximum effect” value is given as 276 Δ %; the “maximum effect compared with barucainid, in words” value is listed as “superior to barucainid”.
Take `Cc1nc(Cc2ccccc2)c2c(c1OCCCCNC(C)C)C(O)OC2.Cl.Cl` (centres unmarked) [Example 2, 1-hydroxy-4-benzyl-6-methyl-7-(4-isopropylaminobutoxy)-1,3-dihydrofuro[3,4-C]pyridine dihydrochloride]: the ECG-toxic dose in data set [1] is on record as above 4.64 mg/kg. Moreover, the selectivity ratio in data set [2] was above 9.9. For the same compound, in data set [3], the ED50 is 0.468 mg/kg; the “Antiarrhythmic effect, maximum effect” value was 239 Δ %; the “maximum effect compared with barucainid, in words” value is listed as “superior to barucainid”.
